Results published in patent publication US10577363B2, “Substituted piperidine compounds” (EPIZYME, INC., priority 2014, dated 2020).

biological target: SMYD3 (Homo sapiens (Human), UniProt Q9H7B4); assay: SMYD3 biochemical assay (SPA, 3H-SAM methylation of MEKK2 protein substrate); conditions: Table 1A; IC50 values are an average of n = 1 to n = 50; read-out: SMYD3 Biochem IC50
Outline: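 Tritium incorporation into GST-MEKK2 is counted by scintillation proximity after citric acid bead capture. Native human SMYD3 is preincubated with test compound for 30 min at room temperature at pH 8.0 (Tris-Cl, TCEP, BSG, Tween 20) before 3H-SAM and substrate are added; cold SAM at 100 uM final stops turnover.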

IC50	Structure (SMILES)
0.407 µM	C[C@H]1C[C@@H](NC(=O)c2cc(C3CC3)on2)CCN1S(=O)(=O)c1ccc(N)nc1 [compound 522, N-((2S,4S)-1-((6-aminopyridin-3-yl)sulfonyl)-2-methylpiperidin-4-yl)-5-cyclopropylisoxazole-3-carboxamide]

same assay, conditions: read-out: SMYD3 Biochem IC50

IC50	Structure (SMILES)
0.0176 µM	NCCNc1ccc(S(=O)(=O)N2C3CCCC2CC(NC(=O)c2cc(C4CC4)on2)C3)cn1 (stereo not drawn) [compound 515, N-(9-((6-((2-aminoethyl)amino)pyridin-3-yl)sulfonyl)-9-azabicyclo[3.3.1]nonan-3-yl)-5-cyclopropylisoxazole-3-carboxamide]

same assay, conditions: read-out: SMYD3 Biochem IC50 (μM)*

IC50	Structure (SMILES)
7.16 µM	NC[C@H](Cc1ccc(O)c(Cl)c1)C(=O)N1CCC(NC(=O)c2cc(C3CC3)on2)CC1 [compound 64, (S)-N-(1-(3-amino-2-(3-chloro-4-hydroxybenzyl)propanoyl)piperidin-4-yl)-5-cyclopropylisoxazole-3-carboxamide]
2.25 µM	N[C@H]1CC[C@H](C(=O)N2CCC(NC(=O)c3cc(C4CC4)on3)C(F)(F)C2)CC1 (stereo partly drawn) [compound 152, N-(1-((1r,4r)-4-aminocyclohexane-1-carbonyl)-3,3-difluoropiperidin-4-yl)-5-cyclopropylisoxazole-3-carboxamide]
0.655 µM	CCCC1CC(NC(=O)c2cc(C3CC3)on2)CCN1C(=O)[C@H]1CC[C@H](N)CC1 (stereo partly drawn) [compound 98, N-(1-((1r,4r)-4-aminocyclohexane-1-carbonyl)-2-propylpiperidin-4-yl)-5-cyclopropylisoxazole-3-carboxamide]
1.33 µM	C[C@H](N)C(=O)NC[C@H](Cc1ccc(O)c(I)c1)C(=O)N1CCC(NC(=O)c2cc(C3CC3)on2)CC1 [compound 62, N-(1-((S)-3-((S)-2-aminopropanamido)-2-(4-hydroxy-3-iodobenzyl)propanoyl)piperidin-4-yl)-5-cyclopropylisoxazole-3-carboxamide]
> 10 µM	CC(C)CNc1ccc(S(=O)(=O)N2CC[C@@H](NC(=O)c3cc(C4CC4)on3)C[C@@H]2C)cn1 [compound 452, 5-cyclopropyl-N-((2S,4R)-1-((6-(isobutylamino)pyridin-3-yl)sulfonyl)-2-methylpiperidin-4-yl)isoxazole-3-carboxamide]
1.65 µM	C[C@@H]1CC(NC(=O)c2cc(C3CC3)on2)CCN1C(=O)[C@H]1CC[C@H](N(C)C)CC1 (stereo partly drawn) [compound 139, 5-cyclopropyl-N-((2R)-1-((1r,4R)-4-(dimethylamino)cyclohexane-1-carbonyl)-2-methylpiperidin-4-yl)isoxazole-3-carboxamide]
0.911 µM	C[C@@H]1CC(NC(=O)c2cc(C3CC3)on2)CCN1C(=O)CC1(O)CCNCC1 (stereo partly drawn) [compound 167, 5-cyclopropyl-N-((2R)-1-(2-(4-hydroxypiperidin-4-yl)acetyl)-2-methylpiperidin-4-yl)isoxazole-3-carboxamide]
0.842 µM	CC1CNCCC1CC(=O)N1CCC(NC(=O)c2cc(C3CC3)on2)C[C@H]1C (stereo partly drawn) [compound 140, 5-cyclopropyl-N-((2R)-2-methyl-1-(2-(3-methylpiperidin-4-yl)acetyl)piperidin-4-yl)isoxazole-3-carboxamide]
30.9 µM	O=C(NC1CCN(C(=O)[C@@H](CO)Cc2ccccc2)CC1)c1cc(C2CC2)on1 [compound 19, (R)-N-(1-(2-benzyl-3-hydroxypropanoyl)piperidin-4-yl)-5-cyclopropylisoxazole-3-carboxamide]
1.15 µM	O=C(N[C@H]1CCN(S(=O)(=O)CCN2CCCC2)[C@H](Cc2ccccc2)C1)c1cc(C2CC2)on1 [compound 408, N-((2R,4S)-2-benzyl-1-((2-(pyrrolidin-1-yl)ethyl)sulfonyl)piperidin-4-yl)-5-cyclopropylisoxazole-3-carboxamide]
1.8 µM	CC[C@@H]1CN(C(=O)CCCN)CC[C@@H]1NC(=O)c1cc(C2CC2)on1 [compound 297, N-((3R,4S)-1-(4-aminobutanoyl)-3-ethylpiperidin-4-yl)-5-cyclopropylisoxazole-3-carboxamide]
4.47 µM	C[C@@H]1C[C@@H](NC(=O)c2cc(C3CC3)on2)CCN1S(=O)(=O)c1ccccn1 [compound 321, 5-cyclopropyl-N-((2R,4S)-2-methyl-1-(pyridin-2-ylsulfonyl)piperidin-4-yl)isoxazole-3-carboxamide]
4.64 µM	C[C@H]1CC(NC(=O)c2cc(C3CC3)on2)CCN1C(=O)C12C3C4C1C1C2C3C41N (stereo partly drawn) [compound 222, N-((2S)-1-(4-aminocubane-1-carbonyl)-2-methylpiperidin-4-yl)-5-cyclopropylisoxazole-3-carboxamide]
> 10 µM	C[C@H]1C[C@H](NC(=O)c2cc(C3CC3)on2)CCN1S(=O)(=O)CCC(F)(F)F [compound 292, 5-cyclopropyl-N-((2S,4R)-2-methyl-1-((3,3,3-trifluoropropyl)sulfonyl)piperidin-4-yl)isoxazole-3-carboxamide]
6.78 µM	C[C@@H]1C[C@H](NC(=O)c2cc(C3CC3)on2)CCN1C(=O)CC(O)CN (stereo partly drawn) [compound 172, N-((2R,4R)-1-(4-amino-3-hydroxybutanoyl)-2-methylpiperidin-4-yl)-5-cyclopropylisoxazole-3-carboxamide]
3.53 µM	CC1CC(CC(=O)N2CCC(NC(=O)c3cc(C4CC4)on3)C[C@@H]2C)CCN1 (stereo partly drawn) [compound 141, 5-cyclopropyl-N-((2S)-2-methyl-1-(2-(2-methylpiperidin-4-yl)acetyl)piperidin-4-yl)isoxazole-3-carboxamide]
> 10 µM	CC(C)CN(C)c1ncccc1S(=O)(=O)N1C2CCCC1CC(NC(=O)c1cc(C3CC3)on1)C2 (stereo not drawn) [compound 472, 5-cyclopropyl-N-(9-((2-(isobutyl(methyl)amino)pyridin-3-yl)sulfonyl)-9-azabicyclo[3.3.1]nonan-3-yl)isoxazole-3-carboxamide]
0.41 µM	C[C@@H]1CC(NC(=O)c2cc(C3CC3)on2)CCN1C(=O)CC1CCCC(N)C1 (stereo partly drawn) [compound 264, N-((2R)-1-(2-(3-aminocyclohexyl)acetyl)-2-methylpiperidin-4-yl)-5-cyclopropylisoxazole-3-carboxamide]
5.98 µM	N[C@@H]1CC[C@@H](C(=O)N2CCC(NC(=O)c3cc(C4CC4)on3)CC2)C1 [compound 145, N-(1-((1R,3R)-3-aminocyclopentane-1-carbonyl)piperidin-4-yl)-5-cyclopropylisoxazole-3-carboxamide]
0.179 µM	C[C@@H]1C[C@@H](NC(=O)c2cc(C3CC3)on2)CCN1C(=O)[C@H](C)C1CCNCC1 [compound 308, 5-cyclopropyl-N-((2R,4S)-2-methyl-1-((R)-2-(piperidin-4-yl)propanoyl)piperidin-4-yl)isoxazole-3-carboxamide]
> 10 µM	CC(C)OCCS(=O)(=O)N1CC[C@H](NC(=O)c2cc(C3CC3)on2)C[C@H]1C [compound 285, 5-cyclopropyl-N-((2R,4S)-1-((2-isopropoxyethyl)sulfonyl)-2-methylpiperidin-4-yl)isoxazole-3-carboxamide]
1.09 µM	CC(C)c1cc(C[C@H](CN)C(=O)N2CCC(NC(=O)c3cc(C4CC4)on3)CC2)ccc1O [compound 112, (R)-N-(1-(3-amino-2-(4-hydroxy-3-isopropylbenzyl)propanoyl)piperidin-4-yl)-5-cyclopropylisoxazole-3-carboxamide]
2.49 µM	C[C@@H]1CC(NC(=O)c2cc(C3CC3)on2)CCN1C(=O)C1CNCC(O)C1 (stereo partly drawn) [compound 135, 5-cyclopropyl-N-((2R)-1-(5-hydroxypiperidine-3-carbonyl)-2-methylpiperidin-4-yl)isoxazole-3-carboxamide]
1.94 µM	N[C@H]1CC[C@H](C(=O)N2CC[C@H](NC(=O)c3cc(C4CC4)on3)[C@H](CO)C2)CC1 [compound 422, N-((3R,4S)-1-((1r,4R)-4-aminocyclohexane-1-carbonyl)-3-(hydroxymethyl)piperidin-4-yl)-5-cyclopropylisoxazole-3-carboxamide]
4.95 µM	C[C@@H]1C[C@@H](NC(=O)c2cc(C3CC3)on2)CCN1C(=O)c1ccc(C(C)(C)N)cc1 [compound 371, N-((2R,4S)-1-(4-(2-aminopropan-2-yl)benzoyl)-2-methylpiperidin-4-yl)-5-cyclopropylisoxazole-3-carboxamide]
> 10 µM	CCCCS(=O)(=O)N1CC[C@H](NC(=O)c2cc(C3CC3)on2)C[C@H]1C [compound 240, N-((2R,4S)-1-(butylsulfonyl)-2-methylpiperidin-4-yl)-5-cyclopropylisoxazole-3-carboxamide]
3.16 µM	COCC(C)S(=O)(=O)N1CC[C@H](NC(=O)c2cc(C3CC3)on2)C[C@@H]1C (stereo partly drawn) [compound 393, 5-cyclopropyl-N-((2S,4S)-1-((1-methoxypropan-2-yl)sulfonyl)-2-methylpiperidin-4-yl)isoxazole-3-carboxamide]
2.76 µM	NCCCS(=O)(=O)N1CCC(NC(=O)c2cc(C3CC3)on2)C(c2ccccc2)C1 (stereo not drawn) [compound 470, N-(1-((3-aminopropyl)sulfonyl)-3-phenylpiperidin-4-yl)-5-cyclopropylisoxazole-3-carboxamide]
0.91 µM	CC1(NC(=O)c2cc(C3CC3)on2)CCN(C(=O)[C@H]2CC[C@H](N)CC2)CC1 [compound 150, N-(1-((1r,4r)-4-aminocyclohexane-1-carbonyl)-4-methylpiperidin-4-yl)-5-cyclopropylisoxazole-3-carboxamide]
15.5 µM	N[C@H](Cc1c[nH]c2ccccc12)C(=O)N1CCC(NC(=O)c2cc(C3CC3)on2)CC1 [compound 2, N-(1-(D-tryptophyl)piperidin-4-yl)-5-cyclopropylisoxazole-3-carboxamide]

Structure (SMILES)	IC50
CC(C)CN(C)c1ccc(S(=O)(=O)N2CC[C@@H](NC(=O)c3cc(C4CC4)on3)C[C@@H]2C)cn1 [compound 411, 5-cyclopropyl-N-((2S,4R)-1-((6-(isobutyl(methyl)amino)pyridin-3-yl)sulfonyl)-2-methylpiperidin-4-yl)isoxazole-3-carboxamide]	> 10 µM
